Experimental data reported in US8648113B2, “Mixture and compounds from mycelia of Antrodia camphorata and use thereof” (Simpson Biotech Co., Ltd., priority 2004, dated 2014).
Several values for one entry are separate records, joined by “and”; a condition that tells them apart may be missing. Identical values can stand only once. Marks after values point to notes of the source that are not given here.

Experiments:
[1] = test system: LLC (Lewis lung carcinoma) cell line; test: Cytotoxic assay, in vitro LLC tumor cell assay (SRB method); details: for 50% Growth Inhibition (ED50): SRB method
[2] = test system: Wistar derived male or female rats; test: Cholinergic Agonism, Central/Peripheral in rats (chewing, salivation); format: in vivo, rat; design: key to Peripheral: Salivation: +: exhibiting salivation; details: 30 mg/kg IP
[3] = test system: Long Evans derived rats, carrageenan-induced paw edema; test: Inflammation, Carrageenan in rats (hind paw edema); format: in vivo, rat; details: 150 mg/kg PO; for Paw Volume Diff: R.P. minus L.P.; for Paw Volume L.P.: left (not injected) hindpaw; for Paw Volume R.P.: right (injected) hindpaw, 3 hours
Description: Hind paw edema, as a measure of inflammation, was recorded 3 hours after carrageenan administration using a plethysmometer with water cell (25 mm diameter). Reduction of hind paw edema by 30 percent or more (30%) indicates significant acute anti-inflammatory activity. […] Reduction of hindpaw edema by 30 percent or more (30%), shown in parenthesis, indicates significant acute anti-inflammatory activity. • 4. […] Anticancer Research 19: 1027-1032, 1999)

[4] = test system: ICR derived male mice on high fat diet; test: Cholesterol, Serum (Total, HDL, Total/HDL Ratio), Diet-Induced in mice; format: in vivo, mouse; details: 100 mg/kg × 3 PO
Description: Groups of 5 ICR derived male mice weighing 22±2 g were kept on a high fat diet (g/100 g: coconut oil, 8; cholesterol, 1.0; cholic acid, 0.3; lard 2; standard chow 88.7) for 7 days to induce hypercholesterolemia. Test substance was administered orally on days 5, 6 and 7. After fasting overnight, serum was obtained from each mouse and assayed for total cholesterol (Total), high density lipoprotein (HDL) and percent change in Total/HDL. A decrease of 20 percent or more (20%) in serum Total or increase of 20 percent or more (≧20%) in serum HDL or decrease of 40% or more (≧40%) in the Total/HDL ratio relative to vehicle treated control animals is considered significant.
Vehicle, test substance or reference positive compound was administered orally (PO) on days 5, 6 and 7 after being fed a high cholesterol diet. Twenty-four hours after the third dose, the overnight-fasted test animals were sacrificed for assessing serum total cholesterol (Total) and high density lipoprotein (HDL). Decrease of 20 percent or more (20%) in serum Total or increase of 20 percent or more (20%) in serum HDL or decrease of 40% or more (40%) in the Total/HDL ratio is considered significant. • 2. Hepatic Injury, D-Galactosamine (Wrobel et al., J. Med. Chem. 41: 1084, 1998)

[5] = test system: B16-F0 murine melanoma cells; test: Tumor, Syngeneic, Melanoma, B16-F0 Cell in C57BL/6J mice; details: B16-F0 in C57BL/6J mice, 2 mg/kg × 6 IP; for Survival Time, Days of Post-treatment: monitored to day 45
[6] = 30-60 min after dosing, individual animals
[7] = positive in 2 or more of 3 = activity
[8] = Ave. of 3 rats (Tables 12 and 13: two experiments), 150 mg/kg
[9] = individual rats (Tables 12 and 13: two experiments), 150 mg/kg

COc1cccc2c1C(=O)c1c(O)c3c(c(O)c1C2=O)C[C@@](O)(C(=O)CO)C[C@@H]3O[C@H]1C[C@H](N)[C@H](O)[C@H](C)O1 [Adriamycin]
50% Growth Inhibition (ED50) [1]: 0.14 µg/mL

COC(=O)C1=CCCN(C)C1 [Arecoline-HBR]
Central: Chewing [2, 6]: + (exhibiting more than 10 seconds of chewing behavior (mouth and/or tongue movements) measured cumulatively) | Peripheral: Salivation [2, 6]: + | Central: Score (positive animals of 3) [2, 7]: (3/3) | Peripheral: Score (positive animals of 3) [2, 7]: (3/3)

CC(=O)Oc1ccccc1C(=O)O [Aspirin]
Paw Volume Diff [3, 8]: 50 ×0.01 ml and 52 ×0.01 ml | Paw Volume Diff [3, 9]: 50 ×0.01 ml and 44 ×0.01 ml and 57 ×0.01 ml and 43 ×0.01 ml and 48 ×0.01 ml and 65 ×0.01 ml | Paw Volume L.P. ([3]; Ave. of 3 rats (Tables 12 and 13: two experiments)): 103 ×0.01 ml | Paw Volume L.P. [3, 9]: 102 ×0.01 ml and 106 ×0.01 ml and 103 ×0.01 ml and 101 ×0.01 ml and 104 ×0.01 ml | Paw Volume R.P. [3, 8]: 154 ×0.01 ml and 155 ×0.01 ml | Paw Volume R.P. [3, 9]: 152 ×0.01 ml and 146 ×0.01 ml and 163 ×0.01 ml and 149 ×0.01 ml and 169 ×0.01 ml

CC(C)(Oc1ccc(CCNC(=O)c2ccc(Cl)cc2)cc1)C(=O)O [Benzafibrate]
HDL Ave. ([4]; Ave. of 5 mice): 113 | Total (serum total cholesterol) Ave. ([4]; Ave. of 5 mice): 228 | Total/HDL Ave. ([4]; Ave. of 5 mice): 2.02 | HDL Indiv. ([4]; individual mice, 100 mg/kg): 91 and 120 and 133 and 123 and 97 | Total (serum total cholesterol) Indiv. ([4]; individual mice, 100 mg/kg): 230 and 214 and 225 and 231 and 242 | Total/HDL Indiv ([4]; individual mice, 100 mg/kg): 2.53 and 1.78 and 1.69 and 1.88 and 2.49 | HDL % Dce ([4]; relative to vehicle): (43) % | Total % Dce ([4]; relative to vehicle): (37) % | Total/HDL % Dce ([4]; relative to vehicle): (56) %

CC(C)=CCOc1ccc(C2=C(CC(C)C)C(=O)NC2=O)cc1 [Compound 2, 3-Isobutyl-4-[4-(3-methyl-2-butenyloxy)phenyl]-1H-pyrrole-2,5-dione]
cytotoxic activity (in words) [1]: cytotoxic | 50% Growth Inhibition (ED50) [1]: 3.6 µg/mL

CO[C@@]12[C@H](COC(N)=O)C3=C(C(=O)C(C)=C(N)C3=O)N1C[C@@H]1N[C@@H]12 [Mitomycin]
Survival Time T/C (%) [5]: 125* % | Tumor Weight T/C(%), Day 1 [5]: 100% | Tumor Weight T/C(%), Day 8 [5]: 0* % | Tumor Weight T/C(%), Day 11 [5]: 16* % | Tumor Weight T/C(%), Day 15 [5]: 27* % | Tumor Weight T/C(%), Day 18 [5]: 32* % | Tumor Weight T/C(%), Day 22 [5]: 25* % | Body Weight, Day 1 ([5]; Mean ± SEM): 21.4 ± 1.1 g | Body Weight, Day 8 ([5]; Mean ± SEM): 22.2 ± 0.8 g | Body Weight, Day 11 ([5]; Mean ± SEM): 22.0 ± 1.1 g | Body Weight, Day 15 ([5]; Mean ± SEM): 23.0 ± 1.0 g | Body Weight, Day 18 ([5]; Mean ± SEM): 24.0 ± 1.1 g | Body Weight, Day 22 ([5]; Mean ± SEM): 26.3 ± 1.9 g | Tumor Weight, Day 1 ([5]; Mean ± SEM): 0 mg | Tumor Weight, Day 8 ([5]; Mean ± SEM): 0 ± 0 mg | Tumor Weight, Day 11 ([5]; Mean ± SEM): 34 ± 15 mg | Tumor Weight, Day 15 ([5]; Mean ± SEM): 119 ± 44 mg | Tumor Weight, Day 18 ([5]; Mean ± SEM): 391 ± 142 mg | Tumor Weight, Day 22 ([5]; Mean ± SEM): 587 ± 260 mg | Survival Time, Days of Post-treatment ([5]; Mean ± SEM): 34.0 ± 4.7 days | Body Weight, Day 8 ([5]; individual mice): 20 g | Body Weight, Day 15 ([5]; individual mice): 20 g | Body Weight, Day 22 ([5]; individual mice): 30 g | Tumor Weight, Day 1 ([5]; individual mice): 0 mg | Tumor Weight, Day 8 ([5]; individual mice): 0 mg | Body Weight, Day 1 ([5]; individual mice, 2 mg/kg): 25 g and 22 g (2×) and 19 g (2×) | Body Weight, Day 8 ([5]; individual mice, 2 mg/kg): 25 g and 22 g (2×) and 21 g | Body Weight, Day 11 ([5]; individual mice, 2 mg/kg): 26 g and 22 g (2×) and 21 g and 19 g | Body Weight, Day 15 ([5]; individual mice, 2 mg/kg): 25 g (2×) and 21 g and 24 g | Body Weight, Day 18 ([5]; individual mice, 2 mg/kg): 24 g and 27 g and 22 g and 26 g and 21 g | Body Weight, Day 22 ([5]; individual mice, 2 mg/kg): 27 g (2×) and 21 g and Died | Tumor Weight, Day 11 ([5]; individual mice, 2 mg/kg): 0 mg (2×) and 64 mg and 68 mg and 41 mg | Tumor Weight, Day 15 ([5]; individual mice, 2 mg/kg): 36 mg and 136 mg and 0 mg and 213 mg and 207 mg | Tumor Weight, Day 18 ([5]; individual mice, 2 mg/kg): 256 mg and 849 mg and 0 mg and 525 mg and 327 mg | Tumor Weight, Day 22 ([5]; individual mice, 2 mg/kg): 437 mg and 1248 mg and 0 mg and 663 mg and Died | Survival Time, Days of Post-treatment ([5]; individual mice, 2 mg/kg): 45^a day (2×) and 28 day and 30 day and 22 day
